Results from patent US8754057B2, “Inhibition of apoptosis-specific eIF-5A(eIF-5A1″) with antisense oligonucleotides and siRNA as anti-inflammatory therapeutics” (Senesco Technologies, Inc., priority 2003, dated 2014).
*1 amine or outer side, *2 acyl side, *3 side chain or, on linkers, in order; H or OH if unused. Where a SMILES comes first, the peptide text is derived from it. Bridges are numbered along the chain shown (N, C = ends). Roman numbers before positions name the chains, in order. [ ]: non-standard residue; d: D form. Actinocin(9to1) = Cc1c2oc3c(C)ccc(C(=O)[*:1])c3nc-2c(C(=O)[*:2])c(N)c1=O; NMeV = CN[C@H](C(=O)O)C(C)C; Sar = CNCC(=O)O

Assays:
Format in all cases: cell-based, human
[1] = test system: lamina cribrosa cell line #506; test: TUNEL labeling of siRNA-transfected LC cells treated with TNF-α and camptothecin; conditions: LC #506, TNF-α and camptothecin 24 h
Method: Lamina cribrosa cell line #506 cells were seeded at 7500 cells per well onto an 8-well culture slide. Three days later the LC cells were transfected with either apoptosis-specific eIF-5A siRNA #1 (SEQ ID NO:30) or control siRNA #5 (SEQ ID NO:34). 72 hours after transfection, the transfected cells were treated with 10 ng/ml TNF-α plus 50 μM camptothecin. Twenty-four hours later the cells were stained with Hoescht 33258 and DNA fragmentation was evaluated in situ using the terminal deoxynucleotidyl transferase-mediated dUTP-digoxigenin nick end labeling (TUNEL) method. Panel A represents the slide observed by fluorescence microscopy using a fluorescein filter to visualize TUNEL-labeling of the fragmented DNA of apoptotic cells. Panel B represents the same slide observed by through a UV filter to visualize the Hoescht-stained nuclei. The results are representative of two independent experiments. All pictures were taken at 400 times magnification.
Transfected cells that had been treated with TNF-α and camptothecin for 24 hours were stained with Hoescht 33258 in order to determine the percentage of cells undergoing apoptosis. Briefly, cells were fixed with a 3:1 mixture of absolute methanol and glacial acetic acid and then incubated with Hoescht stain (0.5 μg/ml Hoescht 33258 in PBS). After a 10 minute incubation in the dark, the staining solution was discarded, the chambers separating the wells of the culture slide were removed, and the slide was washed 3 times for 1 minute with deionized water. After washing, a few drops of Mcllvaine's buffer (0.021 M citric acid, 0.058 M Na2HPO4.7H2O; pH 5.6) was added to the cells and overlaid with a coverslip. The stained cells were viewed under a fluorescent microscope using a UV filter. Cells with brightly stained or fragmented nuclei were scored as apoptotic. A minimum of 200 cells were counted per well. The DeadEnd™ Fluorometric TUNEL (Promega) was also used to detect the DNA fragmentation that is a characteristic feature of apoptotic cells. Following Hoescht staining, the culture slide was washed briefly with distilled water, and further washed by immersing the slide twice for 5 minutes in PBS (137 mM NaCl, 2.68 mM KCl, 1.47 mM KH2PO4, 8.1 mM Na2HPO4), blotting the slide on paper towel between washes. The cells were permeabilized by immersing them in 0.2% Triton X-100 in PBS for 5 minutes. The cells were then washed again by immersing the slide twice for 5 minutes in PBS and blotting the slide on paper towel between washes. 25 μl of equilibration buffer [200 mM potassium cacodylate (pH 6.6), 25 mM. Tris-HCl (pH 6.6), 0.2 mM dithiothreitol, 0.25 mg/ml bovine serum albumin, and 2.5 mM cobalt chloride] was added per well and incubated for 5 to 10 minutes. […] Any cells with brightly stained or fragmented nuclei were scored as apoptotic. […]

[2] = test system: lamina cribrosa cell line #506; test: Hoescht staining apoptosis of siRNA-transfected lamina cribrosa cells treated with TNF-α and camptothecin; conditions: LC #506, 72 h after siRNA transfection, 24 h 10 ng/ml TNF-α plus 50 μM camptothecin
Method: Lamina cribrosa cell line #506 cells were seeded at 7500 cells per well onto an 8-well culture slide. Three days later the LC cells were transfected with either GAPDH siRNA, apoptosis-specific eIF-5A siRNAs #1-4 (SEQ ID NO:30-33), or control siRNA #5 (SEQ ID NO:34). 72 hours after transfection, the transfected cells were treated with 10 ng/ml TNF-α plus 50 μM camptothecin. Twenty-four hours later the cells were stained with Hoescht 33258 and viewed by fluorescence microscopy using a UV filter. Cells with brightly stained condensed or fragmented nuclei were counted as apoptotic. This graph represents the average of n=4 independent experiments.
Following transfection, RKO and lamina cribrosa cells were incubated for 72 hours prior to collection of cellular extract for Western blot analysis. In order to determine the effectiveness of the siRNAs directed against apoptosis-specific eIF-5A to block apoptosis, lamina cribrosa cells were treated with 50 μM of camptothecin (Sigma) and 10 ng/ml of TNF-α (Leinco Technologies) to induce apoptosis either 48 or 72 hours after transfection. The cells were stained with Hoescht either 24 or 48 hours later in order to determine the percentage of cells undergoing apoptosis.
Small inhibitory RNAs (siRNAs) directed against human apoptosis-specific eIF-5A were used to specifically suppress expression of eIF5A in lamina cribrosa cells. Six siRNAs were generated by in vitro transcription using the Silencer™ siRNA Construction Kit (Ambion Inc.), Four siRNAs were generated against human apoptosis-specific eIF-5A (siRNAs #1 to #4). […] The siRNAs were generated according to the manufacturer's protocol. The eIF5A and control siRNA targets had the following sequences: siRNA #1 5′ […] 3′ (SEQ ID NO: 81); siRNA #2 5′ […] 3′ (SEQ ID NO: 82); siRNA #3 5′ […] 3′ (SEQ ID NO: 83); siRNA #4 5′ […] 3′ (SEQ ID NO: 84); siRNA #5′ […] 3′ (SEQ ID NO: 85). Lamina cribrosa cells were transfected with siRNA using LipofectAMINE 2000.
Lamina cribrosa cells were transfected when cell confluence was at 40 to 70% and were generally seeded onto 8-well culture slides at 7500 cells per well three days prior to transfection. Transfection medium sufficient for one well of an 8-well culture slide was prepared by diluting 25.5 proles of siRNA to a final volume of 21.2 μl in Opti-Mem (Sigma). 0.425 μl of Lipofectamine 2000 was diluted to a final volume of 21.2 μl in Opti-Mem and incubated for 7 to 10 minutes at room temperature. The diluted Lipofectamine 2000 mixture was then added to the diluted siRNA mixture and incubated together at room temperature for 20 to 30 minutes, The cells were washed once with serum-free media before adding 135 μl of serum-free media to the cells and overlaying 42.4 μl of transfection medium. […]

[3] = test system: apoptosis-specific eIF-5A; test: Western blot of HT-29 cells treated with IFN gamma; conditions: at 8 hours
Method: FIG. 81 is a western blot of HT-29 cells treated with IFN gamma for 8 and 24 hours.
Priming the cells with interferon gamma prior to TNF treatment causes the cells to produce more IL-8 than either treatment alone. This may be due to the known upregulation of the TNF receptor 1 in response to interferon, so ‘priming’ the cells with interferon allows them to respond to TNF better since the cells have more receptors. siRNA against apoptosis-specific eIF-5A had no effect on IL-8 production in response to TNF alone (previous experiment) however, the siRNA blocked almost all IL-8 produced in response to interferon as well as a significant amount of the IL-8 produced as a result of the combined treatment of interferon and TNF. […] FIG. 81 is a western showing up-regulation (4 fold at 8 hours) of apoptosis-specific eIF-5A in response to interferon gamma in HT-29 cells.

RKO cells = test: Western blots of RKO cells treated with Actinomycin D; conditions: 0.25 μg/ml Actinomycin D for 0, 3, 7, 24, and 48 hours
Method: FIG. 43 provides Western blots of protein extracted from RKO cells treated with 0.25 μg/ml Actinomycin D for 0, 3, 7, 24, and 48 hours. The top panel depicts a Western blot using anti-p53 as the primary antibody. The middle panel depicts a Western blot using anti-apoptosis-specific eIF-5A as the primary antibody.

[4] = test system: lamina cribrosa cell line #506; conditions: 48 hours; Hoescht staining
Method: FIG. 83 is a graph showing percent apoptosis of lamina cribrosa cell line #506 in response to treatment with camptothecin and TNF-α. Lamina cribrosa cell line #506 cells were seeded at 40,000 cells per well onto an 8-well culture slide. Three days later the confluent LC cells were treated with either 10 ng/ml TNF-α, 50 μM camptothecin, or 10 ng/ml TNF-α plus 50 μM camptothecin. An equivalent volume of DMSO, a vehicle control for camptothecin, was added to the untreated control cells. The cells were stained with Hoescht 33258 48 hours after treatment and viewed by fluorescence microscopy using a UV filter. Cells with brightly stained condensed or fragmented nuclei were counted as apoptotic.
Apoptosis was induced in lamina cribrosa cells using a combination of 50 μM camptothecin (Sigma) and 10 ng/ml TNF-α (Leinco Technologies).
Since TNF-α is believed to play an important role during the glaucomatous process, the susceptibility of LC cells to the cytotoxic effects of TNF-α was examined. Confluent LC cells were exposed to either camptothecin, TNF-α, or a combination of camptothecin and TNF-α for 48 hours (FIG. 83).

For “siRNA #5: control siRNA (SEQ ID NO:34) with the reverse sequence of siRNA #1; does not target eIF5A (AAAGTCGACCTTCAGTAAGGATT; listed as DNA, chemistry not fully specified; listed as Homo sapiens)”, the “LC cells positive for TUNEL staining” value ([1]; 3 days after transfection) was 46%.
For “siRNA #2: siRNA against human apoptosis-specific eIF-5A (SEQ ID NO:31); target 5′ AAGATCGTCGAGATGTCTACT 3′ (SEQ ID NO: 82) (AAGAUCGUCGAGAUGUCUACUUC; unmodified RNA; listed as Homo sapiens)”, the “reduce apoptosis of LC cells” value [2] was 35%.
“siRNA #3: siRNA against human apoptosis-specific eIF-5A (SEQ ID NO:32); target 5′ AAGGTCCATCTGGTTGGTATT 3′ (SEQ ID NO: 83) (AAGGUCCAUCUGGUUGGUAUUGA; unmodified RNA; listed as Homo sapiens)” was tested, and the “reduce apoptosis of LC cells” value [2] was 50%.
For “interferon gamma: interferon gamma (Roche Diagnostics)”, the “up-regulation of apoptosis-specific eIF-5A” value [3] was 4 fold.
With Cc1c2oc3c(C)ccc(C(=O)N[C@@H]4C(=O)N[C@H](C(C)C)C(=O)N5CCC[C@H]5C(=O)N(C)CC(=O)N(C)[C@@H](C(C)C)C(=O)O[C@@H]4C)c3nc-2c(C(=O)N[C@@H]2C(=O)N[C@H](C(C)C)C(=O)N3CCC[C@H]3C(=O)N(C)CC(=O)N(C)[C@@H](C(C)C)C(=O)O[C@@H]2C)c(N)c1=O [Actinomycin D] (I: T[dV]P[Sar][NMeV] / II: T[dV]P[Sar][NMeV]; ester I:1-I:C, II:1-II:C; linker I:N-II:N via Actinocin(9to1)) the “apoptosis-specific eIF-5A protein” value (RKO cells) was “upregulated” and the p53 protein (RKO cells) was “upregulated”.
In the case of TNF-α, the “cytotoxic to LC cells” value [4] is reported as “not cytotoxic”.
In the case of “siRNA #4: siRNA against human apoptosis-specific eIF-5A (SEQ ID NO:33); target 5′ AAGCTGGACTCCTCCTACACA 3′ (SEQ ID NO: 84) (AAGCTGGACTCCTCCTACACAAT; listed as DNA, chemistry not fully specified; listed as Homo sapiens)”, the “reduce apoptosis of LC cells” value [2] is reported as 69% and the “protection from apoptosis relative to the control siRNA” value ([1]; TUNEL) is reported as “greater than 60%”.
